According to ChEMBL document CHEMBL2331314, “Dorsamin-A's, glycerolipids carrying a dehydrophenylalanine ester moiety from the seed-eating larvae of the bruchid beetle Bruchidius dorsalis” (J Nat Prod, 2013):

Assay: Antioxidant activity assessed as concentration required to 50 % ABTS radical scavenging activity absorbance at 734 nm
Assay type: functional

Structure (SMILES)	Activity
COC(=O)/C=C/c1ccccc1	> 1000 µM
CCCCCCCC/C=C/CCCCCCCC(=O)OC[C@H](COC(=O)/C(N)=C/c1ccccc1)OC(=O)CCCCCCC/C=C/CCCCCCCC	11 µM
COC(=O)/C(N)=C/c1ccccc1	9.6 µM
Cc1c(C)c2c(c(C)c1O)CCC(C)(C(=O)O)O2 (stereo not given)	19 µM
COC(=O)C(=O)Cc1ccccc1	8.8 µM
